# Where no end group is shown, it is not given here.
# B1: CCL25 (protein, UniProt O15444 24-150, looked up)
# C-C motif chemokine 25: QGVFEDCCLAYHYPIGWAVLRRAWTYRIQEVSGSCNLPAAIFYLPKRHRKVCGNPKSREVQRAMKLLDARNKVFAKLHHNTQTFQAGPHAVKKLSSGNSKLSSSKFSNPISSSKRNVSLLISANSGL
# How the values were obtained:
# CHRM4 = CHRM4 (Homo sapiens, UniProt P08173); experiment: GPCR panel (control), Arrestin, CHO-K1; format: cell-based; settings: reference agonist
# CHRM5 = CHRM5 (Homo sapiens, UniProt P08912); experiment: GPCR panel (control), Arrestin, CHO-K1; format: cell-based; settings: reference agonist
# CHRM2 = CHRM2 (Homo sapiens, UniProt P08172); settings: reference agonist, CHRM2, CHO-K1, Arrestin
# CNR1 = CNR1 (Homo sapiens, UniProt P21554); settings: reference agonist, CNR1, CHO-K1, Arrestin
# CNR2 = CNR2 (Homo sapiens, UniProt P34972); settings: reference agonist, CNR2, CHO-K1, Arrestin
# Chain of CNR2 (P34972 whole entry): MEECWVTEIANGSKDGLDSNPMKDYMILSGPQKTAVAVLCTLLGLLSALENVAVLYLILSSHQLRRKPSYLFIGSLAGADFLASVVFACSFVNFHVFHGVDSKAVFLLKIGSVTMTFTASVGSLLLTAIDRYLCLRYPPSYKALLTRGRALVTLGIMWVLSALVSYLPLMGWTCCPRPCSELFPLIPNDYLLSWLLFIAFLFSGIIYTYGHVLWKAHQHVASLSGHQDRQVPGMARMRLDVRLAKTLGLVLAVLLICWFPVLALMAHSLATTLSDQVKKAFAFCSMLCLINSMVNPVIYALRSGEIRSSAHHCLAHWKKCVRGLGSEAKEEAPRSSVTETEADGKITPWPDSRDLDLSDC
# DRD2S = DRD2S (Homo sapiens, UniProt P14416); settings: reference agonist, CHO-K1, Arrestin
# Chain of DRD2S (P14416 other isoform, or with tags, fused parts or gaps): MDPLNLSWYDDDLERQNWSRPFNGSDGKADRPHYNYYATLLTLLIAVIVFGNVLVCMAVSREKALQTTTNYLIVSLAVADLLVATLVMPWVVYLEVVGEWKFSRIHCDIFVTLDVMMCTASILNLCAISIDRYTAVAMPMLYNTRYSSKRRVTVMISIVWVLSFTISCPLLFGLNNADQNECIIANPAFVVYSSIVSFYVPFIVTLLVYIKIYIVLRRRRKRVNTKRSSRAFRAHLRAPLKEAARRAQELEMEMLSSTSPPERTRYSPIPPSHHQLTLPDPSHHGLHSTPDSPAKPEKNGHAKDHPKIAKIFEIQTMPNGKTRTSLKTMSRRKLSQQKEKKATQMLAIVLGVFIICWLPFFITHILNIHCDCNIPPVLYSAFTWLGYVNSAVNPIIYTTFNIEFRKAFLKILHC
# DRD4 = DRD4 (Homo sapiens, UniProt P21917); settings: reference agonist, DRD4, CHO-K1, Arrestin
# DRD2L = DRD2L (Homo sapiens, UniProt P14416); settings: reference agonist, CHO-K1, Arrestin
# GPR120 = GPR120 (Homo sapiens, UniProt Q5NUL3); experiment: GPCR panel (control), Arrestin, CHO-K1; format: cell-based; settings: reference agonist
# HRH2 = HRH2 (Homo sapiens, UniProt P25021); settings: reference agonist, HRH2, CHO-K1, Arrestin
# Chain of HRH2 (P25021 whole entry): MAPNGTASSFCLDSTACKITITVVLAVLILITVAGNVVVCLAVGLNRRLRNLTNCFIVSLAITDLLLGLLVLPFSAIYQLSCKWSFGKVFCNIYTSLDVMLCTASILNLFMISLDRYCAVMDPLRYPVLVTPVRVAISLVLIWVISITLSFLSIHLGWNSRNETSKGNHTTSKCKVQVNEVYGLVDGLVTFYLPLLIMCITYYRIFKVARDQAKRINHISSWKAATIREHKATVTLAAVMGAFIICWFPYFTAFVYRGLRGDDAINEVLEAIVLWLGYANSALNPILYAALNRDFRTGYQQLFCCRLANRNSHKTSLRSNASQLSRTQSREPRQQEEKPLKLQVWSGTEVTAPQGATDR
# ADRA1B = ADRA1B (Homo sapiens, UniProt P35368); experiment: GPCR panel (control), Arrestin, CHO-K1; format: cell-based; settings: reference agonist
# PTGER3 = PTGER3 (Homo sapiens, UniProt P43115); experiment: GPCR panel (control), Arrestin, CHO-K1; format: cell-based; settings: reference agonist
# Chain of PTGER3 (P43115 whole entry): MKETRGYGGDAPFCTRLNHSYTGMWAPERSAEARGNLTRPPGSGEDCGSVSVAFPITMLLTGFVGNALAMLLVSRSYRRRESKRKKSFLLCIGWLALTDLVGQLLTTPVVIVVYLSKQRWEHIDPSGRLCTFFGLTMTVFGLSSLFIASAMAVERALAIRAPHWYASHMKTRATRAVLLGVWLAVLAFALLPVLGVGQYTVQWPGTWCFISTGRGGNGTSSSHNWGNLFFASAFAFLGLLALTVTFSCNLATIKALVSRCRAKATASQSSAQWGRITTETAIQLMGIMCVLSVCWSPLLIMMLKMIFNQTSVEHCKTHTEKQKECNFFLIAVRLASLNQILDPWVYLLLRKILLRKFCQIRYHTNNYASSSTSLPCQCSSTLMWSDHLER
# PTGER4 = PTGER4 (Homo sapiens, UniProt P35408); experiment: GPCR panel (control), Arrestin, HEK-293; format: cell-based; settings: reference agonist, PTGER4, HEK-293, Arrestin
# PTGER2 = PTGER2 (Homo sapiens, UniProt P43116); experiment: GPCR panel (control), Arrestin, CHO-K1; format: cell-based; settings: reference agonist
# Chain of PTGER2 (P43116 whole entry): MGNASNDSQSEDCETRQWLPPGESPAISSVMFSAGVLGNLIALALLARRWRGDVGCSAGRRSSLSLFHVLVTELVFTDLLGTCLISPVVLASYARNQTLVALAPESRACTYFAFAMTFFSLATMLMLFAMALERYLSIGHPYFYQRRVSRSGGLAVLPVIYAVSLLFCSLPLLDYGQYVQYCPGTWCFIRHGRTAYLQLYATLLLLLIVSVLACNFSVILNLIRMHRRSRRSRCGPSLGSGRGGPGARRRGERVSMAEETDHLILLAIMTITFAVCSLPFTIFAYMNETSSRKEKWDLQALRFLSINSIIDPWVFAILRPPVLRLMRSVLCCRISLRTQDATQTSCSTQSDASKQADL
# TACR3 = target: T1, TACR3 (Homo sapiens, UniProt P29371); experiment: GPCR panel (control), Arrestin, CHO-K1; format: cell-based; settings: reference agonist
# T1 construct: expressed in transfected cells; host or cells: CHO-K1
# T1 sequence (P29371 whole entry): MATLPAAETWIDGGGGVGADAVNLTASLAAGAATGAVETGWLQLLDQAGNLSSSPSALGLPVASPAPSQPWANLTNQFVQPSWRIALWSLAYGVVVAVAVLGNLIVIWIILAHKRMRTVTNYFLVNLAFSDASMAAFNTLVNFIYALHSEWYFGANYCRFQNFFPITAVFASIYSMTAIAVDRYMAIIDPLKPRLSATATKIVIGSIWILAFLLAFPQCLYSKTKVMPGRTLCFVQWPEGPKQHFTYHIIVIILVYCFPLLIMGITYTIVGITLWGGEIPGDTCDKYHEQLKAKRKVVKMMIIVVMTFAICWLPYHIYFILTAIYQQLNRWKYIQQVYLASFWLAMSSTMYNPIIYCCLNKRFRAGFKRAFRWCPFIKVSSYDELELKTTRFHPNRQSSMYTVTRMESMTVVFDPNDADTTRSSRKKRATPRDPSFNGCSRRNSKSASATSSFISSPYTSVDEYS
# UTR2 = target: T2, UTR2 (Homo sapiens, UniProt Q9UKP6); experiment: GPCR panel (control), Arrestin, CHO-K1; format: cell-based; settings: reference agonist
# T2 construct: expressed in transfected cells; host or cells: CHO-K1
# F2RL3 = target: T3, F2RL3 (Homo sapiens, UniProt Q96RI0); experiment: GPCR panel (control), Arrestin, CHO-K1; format: cell-based; settings: reference agonist
# T3 construct: expressed in transfected cells; host or cells: CHO-K1
# T3 sequence (Q96RI0 18-385): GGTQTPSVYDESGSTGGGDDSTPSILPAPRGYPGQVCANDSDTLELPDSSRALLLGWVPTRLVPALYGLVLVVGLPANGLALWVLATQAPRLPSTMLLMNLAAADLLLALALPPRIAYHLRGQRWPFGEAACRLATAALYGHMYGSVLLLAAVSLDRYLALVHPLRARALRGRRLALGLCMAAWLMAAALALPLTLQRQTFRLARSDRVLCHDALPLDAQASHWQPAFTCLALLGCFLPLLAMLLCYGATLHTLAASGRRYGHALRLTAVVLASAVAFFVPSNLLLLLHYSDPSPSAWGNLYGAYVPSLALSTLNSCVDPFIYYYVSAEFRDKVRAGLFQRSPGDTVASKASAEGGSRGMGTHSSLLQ
# CALCR + RAMP3 = CALCR + RAMP3 (Homo sapiens, UniProt O60896+P30988); settings: reference agonist, CALCR + RAMP3, CHO-K1, Arrestin
# CALCR + RAMP2 = CALCR + RAMP2 (Homo sapiens, UniProt O60895+P30988); settings: reference agonist, CALCR + RAMP2, CHO-K1, Arrestin
# CALCR = CALCR (Homo sapiens, UniProt P30988); settings: reference agonist, U2OS, Arrestin
# EDNRA = EDNRA (Homo sapiens, UniProt P25101); settings: reference agonist, CHO-K1, Arrestin
# EDNRB = target: T4, EDNRB (Homo sapiens, UniProt P24530); experiment: GPCR panel (control), Arrestin, CHO-K1; format: cell-based; settings: reference agonist
# T4 construct: expressed in transfected cells; host or cells: CHO-K1
# GLP1R = GLP1R (Homo sapiens, UniProt P43220); settings: reference agonist, CHO-K1, Arrestin
# Chain of GLP1R (P43220 24-463): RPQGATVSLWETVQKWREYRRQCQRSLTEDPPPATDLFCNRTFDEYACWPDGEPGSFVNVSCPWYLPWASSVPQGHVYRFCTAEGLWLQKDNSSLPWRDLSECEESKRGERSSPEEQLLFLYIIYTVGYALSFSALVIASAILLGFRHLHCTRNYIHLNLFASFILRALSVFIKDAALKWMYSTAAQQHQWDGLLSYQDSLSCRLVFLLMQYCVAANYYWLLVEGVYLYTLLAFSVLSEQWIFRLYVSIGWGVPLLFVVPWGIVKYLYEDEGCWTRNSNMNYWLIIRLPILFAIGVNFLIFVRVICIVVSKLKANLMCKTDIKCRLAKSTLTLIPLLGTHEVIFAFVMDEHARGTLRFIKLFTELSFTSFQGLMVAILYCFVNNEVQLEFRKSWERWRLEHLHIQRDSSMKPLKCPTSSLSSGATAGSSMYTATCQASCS
# HSR1A = HSR1A (Homo sapiens, UniProt Q92847); settings: reference agonist, U2OS, Arrestin
# HCRTR1 = target: T5, HCRTR1 (Homo sapiens, UniProt O43613); experiment: GPCR panel (control), Arrestin, CHO-K1; format: cell-based; settings: reference agonist
# T5 construct: expressed in transfected cells; host or cells: CHO-K1
# ADCYAP1R1 = ADCYAP1R1 (Homo sapiens, UniProt P41586); settings: reference agonist, ADCYAP1R1, CHO-K1, Arrestin
# Chain of ADCYAP1R1 (P41586 21-468): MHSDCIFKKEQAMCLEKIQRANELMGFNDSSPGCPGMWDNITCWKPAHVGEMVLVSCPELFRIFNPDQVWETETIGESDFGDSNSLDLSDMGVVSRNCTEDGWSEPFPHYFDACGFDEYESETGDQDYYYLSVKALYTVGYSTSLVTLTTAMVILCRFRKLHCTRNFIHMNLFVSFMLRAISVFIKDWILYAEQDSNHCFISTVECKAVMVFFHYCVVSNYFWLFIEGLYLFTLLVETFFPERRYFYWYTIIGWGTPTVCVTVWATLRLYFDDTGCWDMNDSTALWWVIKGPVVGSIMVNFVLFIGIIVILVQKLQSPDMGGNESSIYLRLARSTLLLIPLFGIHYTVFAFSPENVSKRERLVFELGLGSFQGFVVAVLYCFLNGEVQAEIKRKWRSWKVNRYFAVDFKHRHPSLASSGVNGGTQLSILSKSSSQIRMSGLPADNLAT
# PTHR1 = target: T6, PTHR1 (Homo sapiens, UniProt Q03431); experiment: GPCR panel (control), Arrestin, CHO-K1; format: cell-based; settings: reference agonist
# T6 construct: expressed in transfected cells; host or cells: CHO-K1
# BDKRB2 = target: T7, BDKRB2 (Homo sapiens, UniProt P30411); experiment: GPCR panel (control), Arrestin, CHO-K1; format: cell-based; settings: reference agonist
# T7 construct: expressed in transfected cells; host or cells: CHO-K1
# RXFP3 = target: T8, RXFP3 (Homo sapiens, UniProt Q9NSD7); experiment: GPCR panel (control), Arrestin, U2OS; format: cell-based; settings: reference agonist
# T8 construct: expressed in transfected cells; host or cells: U2OS
# T8 sequence (Q9NSD7 whole entry): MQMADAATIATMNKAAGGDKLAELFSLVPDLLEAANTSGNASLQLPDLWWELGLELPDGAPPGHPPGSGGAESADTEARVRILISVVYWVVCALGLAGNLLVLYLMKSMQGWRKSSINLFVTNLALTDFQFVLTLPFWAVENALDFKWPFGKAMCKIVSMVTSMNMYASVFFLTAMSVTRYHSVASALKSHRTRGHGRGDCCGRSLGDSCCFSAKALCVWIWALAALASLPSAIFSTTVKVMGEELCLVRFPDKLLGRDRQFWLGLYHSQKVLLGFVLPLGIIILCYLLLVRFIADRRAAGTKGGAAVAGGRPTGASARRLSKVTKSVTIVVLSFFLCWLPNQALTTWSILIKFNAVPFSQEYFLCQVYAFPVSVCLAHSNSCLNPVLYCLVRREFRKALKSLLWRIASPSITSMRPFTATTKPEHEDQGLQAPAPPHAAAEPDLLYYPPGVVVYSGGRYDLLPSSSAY
# F2RL1 = target: T9, F2RL1 (Homo sapiens, UniProt P55085); experiment: GPCR panel (control), Arrestin, U2OS; format: cell-based; settings: reference agonist
# T9 construct: expressed in transfected cells; host or cells: U2OS
# T9 sequence (P55085 26-397): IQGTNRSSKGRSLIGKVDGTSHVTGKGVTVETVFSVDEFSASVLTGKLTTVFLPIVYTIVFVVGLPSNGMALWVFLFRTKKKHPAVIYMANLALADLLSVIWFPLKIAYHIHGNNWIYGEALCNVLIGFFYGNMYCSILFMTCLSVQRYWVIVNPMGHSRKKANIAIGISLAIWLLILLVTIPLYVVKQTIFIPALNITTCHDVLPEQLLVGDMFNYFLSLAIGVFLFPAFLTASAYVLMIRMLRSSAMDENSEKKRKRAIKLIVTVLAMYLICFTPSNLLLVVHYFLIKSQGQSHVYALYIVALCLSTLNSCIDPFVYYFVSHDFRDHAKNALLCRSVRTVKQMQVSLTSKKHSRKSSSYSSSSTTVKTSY
# CRHR2 = target: T10, CRHR2 (Homo sapiens, UniProt Q13324); experiment: GPCR panel (control), Arrestin, CHO-K1; format: cell-based; settings: reference agonist
# T10 construct: expressed in transfected cells; host or cells: CHO-K1
# SCTR = target: T11, SCTR (Homo sapiens, UniProt P47872); experiment: GPCR panel (control), Arrestin, CHO-K1; format: cell-based; settings: reference agonist
# T11 construct: expressed in transfected cells; host or cells: CHO-K1
# SSTR2 = SSTR2 (Homo sapiens, UniProt P30874); settings: reference agonist, SSTR2, CHO-K1, Arrestin
# SSTR5 = SSTR5 (Homo sapiens, UniProt P35346); settings: reference agonist, SSTR5, CHO-K1, Arrestin
# F2R = target: T12, F2R (Homo sapiens, UniProt P25116); experiment: GPCR panel (control), Arrestin, CHO-K1; format: cell-based; settings: reference agonist
# T12 construct: expressed in transfected cells; host or cells: CHO-K1
# T12 sequence (P25116 22-425): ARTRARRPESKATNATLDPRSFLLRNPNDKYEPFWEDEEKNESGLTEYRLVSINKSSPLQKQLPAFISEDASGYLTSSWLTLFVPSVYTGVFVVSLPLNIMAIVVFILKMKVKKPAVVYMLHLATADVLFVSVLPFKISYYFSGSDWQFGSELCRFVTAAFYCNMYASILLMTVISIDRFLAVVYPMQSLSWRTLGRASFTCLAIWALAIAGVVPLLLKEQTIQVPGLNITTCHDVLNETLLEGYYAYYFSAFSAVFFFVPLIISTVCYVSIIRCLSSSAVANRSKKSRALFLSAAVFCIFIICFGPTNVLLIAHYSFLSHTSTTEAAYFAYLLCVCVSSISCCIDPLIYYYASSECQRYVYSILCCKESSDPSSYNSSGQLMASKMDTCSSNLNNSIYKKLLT
# PTHR2 = target: T13, PTHR2 (Homo sapiens, UniProt P49190); experiment: GPCR panel (control), Arrestin, CHO-K1; format: cell-based; settings: reference agonist
# T13 construct: expressed in transfected cells; host or cells: CHO-K1
# FPRL1 = target: T14, FPRL1 (Homo sapiens, UniProt P25090); experiment: GPCR panel (control), Arrestin, CHO-K1; format: cell-based; settings: reference agonist
# T14 construct: expressed in transfected cells; host or cells: CHO-K1
# FPR1 = target: T15, FPR1 (Homo sapiens, UniProt P21462); experiment: GPCR panel (control), Arrestin, CHO-K1; format: cell-based; settings: reference agonist
# T15 construct: expressed in transfected cells; host or cells: CHO-K1
# CCR9 = experiment: GPCR panel (control), Arrestin, CHO-K1; format: cell-based, human; settings: reference agonist
molecule,measurement,setting,value
CC(=O)OCC[N+](C)(C)C [Acetylcholine],EC80,CHRM4,200 µM
same,EC80,CHRM5,150 µM
same,EC80,CHRM2,230 µM
CCCCCCC(C)(C)c1ccc([C@@H]2C[C@H](O)CC[C@H]2CCCO)c(O)c1 [CP55940],EC80,CNR1,170 nM
same,EC80,CNR2,140 nM
NCCc1ccc(O)c(O)c1 [Dopamine],EC80,DRD2S,5.4 µM
same,EC80,DRD4,21 µM
same,EC80,DRD2L,18 µM
O=C(O)CCc1ccc(NCc2cccc(Oc3ccccc3)c2)cc1 [GW9508],EC80,GPR120,570 µM
NCCc1c[nH]cn1 [Histamine],EC80,HRH2,110 µM
CNC[C@H](O)c1cccc(O)c1 [Phenylephrine],EC80,ADRA1B,10 µM
CCCCC[C@H](O)/C=C/[C@H]1[C@H](O)CC(=O)[C@@H]1C/C=C\CCCC(=O)O [Prostaglandin E2],EC80,PTGER3,980 nM
same,EC80,PTGER4,140 nM
same,EC80,PTGER2,42 µM
CSCC[C@H](NC(=O)[C@H](CC(C)C)NC(=O)CNC(=O)[C@H](Cc1ccccc1)NC(=O)[C@H](Cc1ccccc1)NC(=O)[C@H](CCC(N)=O)NC(=O)[C@H](CCC(N)=O)NC(=O)[C@@H]1CCCN1C(=O)[C@H](CCCCN)NC(=O)[C@@H]1CCCN1C(=O)[C@@H](N)CCCN=C(N)N)C(N)=O [Substance P],EC80,TACR3,920 nM
CC(C)[C@H](NC(=O)[C@@H]1CSSC[C@H](NC(=O)[C@H](CC(=O)O)NC(=O)[C@@H]2CCCN2C(=O)[C@@H](NC(=O)[C@@H](N)CCC(=O)O)[C@@H](C)O)C(=O)N[C@@H](Cc2ccccc2)C(=O)N[C@@H](Cc2c[nH]c3ccccc23)C(=O)N[C@@H](CCCCN)C(=O)N[C@@H](Cc2ccc(O)cc2)C(=O)N1)C(=O)O [Urotensin II],EC80,UTR2,31 nM
AYPGKF-NH2,EC80,F2RL3,370 µM
Calcitonin,EC80,CALCR + RAMP3,8.9 µM
same,EC80,CALCR + RAMP2,440 nM
same,EC80,CALCR,1.6 µM
Endothelin-1,EC80,EDNRA,190 nM
Endothelin-3,EC80,EDNRB,260 nM
Exendin-4,EC80,GLP1R,240 nM
Ghrelin,EC80,HSR1A,380 nM
Orexin A,EC80,HCRTR1,520 nM
PACAP-27,EC80,ADCYAP1R1,140 nM
PTH(1-34),EC80,PTHR1,280 nM
RPPGFSPFR [Bradykinin],EC80,BDKRB2,35 nM
Relaxin-3,EC80,RXFP3,3.1 µM
SLIGRL-NH2,EC80,F2RL1,24 µM
Sauvagine,EC80,CRHR2,460 nM
Secretin,EC80,SCTR,74 nM
Somatostatin 28,EC80,SSTR2,93 nM
same,EC80,SSTR5,1.3 µM
TFLLR-NH2,EC80,F2R,1.3 mM
TIP-39,EC80,PTHR2,130 nM
WKYMVm-NH2,EC80,FPRL1,67 nM
same,EC80,FPR1,620 nM
B1,EC80,CCR9,14 µM

# — publication PMC10771525 (Communications Biology, 2024)
